Test results: patent US10988477B2 (Merck Patent GmbH, priority 2018, dated 2021)

Columns and labels:
[1] = molecular target: intracellular GCN2 (phosphorylation of the GCN2 substrate eIF2α) (Homo sapiens, UniProt Q9P2K8); assay: GCN2 cellular inhibition assay (AlphaScreen SureFire P-eIF2α Ser51, borrelidin-treated U2OS cells); type: cell-based; conditions: compounds of Formula II; biomarker assay, phosphorylated eIF2α Ser51 in borrelidin-treated U2OS cells
Description: Compounds can be screened for their ability to inhibit intracellular GCN2 using an AlphaScreen assay (Perkin Elmer) to detect phosphorylation of the GCN2 substrate eIF2α in borrelidin-treated cells. U2OS cells are plated at 5,000 cells per well in 384-well white polystyrene plates (Corning 3570) in McCoy's 5 A media (GIBCO 26600-023) supplemented with 10% foetal bovine serum (SAFC 12103C), Penicillin/Streptomycin solution diluted 1:100 (Sigma P0781), and 2 mM L-glutamine (Sigma G7513), and allowed to adhere overnight at 37° C. in 5% CO2. Compounds are then added to the cell media from a final concentration of 40 μM in 4-fold serial dilutions. Borrelidin (FluoroChem M01440) is immediately added to the wells to a final concentration of 10 μM and the cells are incubated for 1 h at 37° C. in 5% CO2. After 1 h of treatment with borrelidin, the media is removed, and the cells are lysed with lysis buffer (TGR BioSciences TGRLB) at ambient temperature.
An AlphaScreen SureFire P-eIF2α (Ser51) assay kit (Perkin Elmer TGREIF2S) was used to measure levels of eIF2α phosphorylated on Serine 51. Anti-phosphorylated eIF2α Ser51 antibody-linked acceptor beads (TGR BioScience 6760617) are added to the cell homogenate (diluted 1:250 into a mixture of activation (TGR BioScience TGRAB) and reaction buffer (TGR BioScience TGREIF2S) prepared immediately before use). The plate is then incubated for 2 h at ambient temperature in the dark. Anti-eIF2α antibody-linked donor beads (TGR BioScience 6760617) were then added (diluted 1:100 in dilution buffer (TGR BioScience TGRDB) prepared immediately before use). The plate is then incubated overnight at ambient temperature in the dark.
Plates are analyzed on an Alpha Technology-compatible PHERAstar FS plate reader (BMG Labtech Version 1.14) to quantify phosphorylated eIF2α Ser51 levels. The percentage inhibition of phosphorylated eIF2α is calculated by comparison to control wells stimulated with borrelidin alone.

GCN2 kinase = GCN2 kinase (Homo sapiens, UniProt Q9P2K8); assay: GCN2 enzyme inhibition assay (Transcreener ADP2 fluorescence polarization); type: biochemical; conditions: compounds of Formula II; 280 μM ATP, 4 nM GCN2 kinase
Method in brief: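 4 nM GCN2 + 200 μM (RS)7 + compound (0–8 μM), 10 min preinc.; start with ATP (280 μM final); 1 h, 25 °C; pH 7.5 Tris/NaCl/MgCl2/DTT; ADP FP readout; IC50, Ki(app) via tight-binding fit.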

Chain of intracellular GCN2 (phosphorylation of the GCN2 substrate eIF2α) (Q9P2K8 whole entry): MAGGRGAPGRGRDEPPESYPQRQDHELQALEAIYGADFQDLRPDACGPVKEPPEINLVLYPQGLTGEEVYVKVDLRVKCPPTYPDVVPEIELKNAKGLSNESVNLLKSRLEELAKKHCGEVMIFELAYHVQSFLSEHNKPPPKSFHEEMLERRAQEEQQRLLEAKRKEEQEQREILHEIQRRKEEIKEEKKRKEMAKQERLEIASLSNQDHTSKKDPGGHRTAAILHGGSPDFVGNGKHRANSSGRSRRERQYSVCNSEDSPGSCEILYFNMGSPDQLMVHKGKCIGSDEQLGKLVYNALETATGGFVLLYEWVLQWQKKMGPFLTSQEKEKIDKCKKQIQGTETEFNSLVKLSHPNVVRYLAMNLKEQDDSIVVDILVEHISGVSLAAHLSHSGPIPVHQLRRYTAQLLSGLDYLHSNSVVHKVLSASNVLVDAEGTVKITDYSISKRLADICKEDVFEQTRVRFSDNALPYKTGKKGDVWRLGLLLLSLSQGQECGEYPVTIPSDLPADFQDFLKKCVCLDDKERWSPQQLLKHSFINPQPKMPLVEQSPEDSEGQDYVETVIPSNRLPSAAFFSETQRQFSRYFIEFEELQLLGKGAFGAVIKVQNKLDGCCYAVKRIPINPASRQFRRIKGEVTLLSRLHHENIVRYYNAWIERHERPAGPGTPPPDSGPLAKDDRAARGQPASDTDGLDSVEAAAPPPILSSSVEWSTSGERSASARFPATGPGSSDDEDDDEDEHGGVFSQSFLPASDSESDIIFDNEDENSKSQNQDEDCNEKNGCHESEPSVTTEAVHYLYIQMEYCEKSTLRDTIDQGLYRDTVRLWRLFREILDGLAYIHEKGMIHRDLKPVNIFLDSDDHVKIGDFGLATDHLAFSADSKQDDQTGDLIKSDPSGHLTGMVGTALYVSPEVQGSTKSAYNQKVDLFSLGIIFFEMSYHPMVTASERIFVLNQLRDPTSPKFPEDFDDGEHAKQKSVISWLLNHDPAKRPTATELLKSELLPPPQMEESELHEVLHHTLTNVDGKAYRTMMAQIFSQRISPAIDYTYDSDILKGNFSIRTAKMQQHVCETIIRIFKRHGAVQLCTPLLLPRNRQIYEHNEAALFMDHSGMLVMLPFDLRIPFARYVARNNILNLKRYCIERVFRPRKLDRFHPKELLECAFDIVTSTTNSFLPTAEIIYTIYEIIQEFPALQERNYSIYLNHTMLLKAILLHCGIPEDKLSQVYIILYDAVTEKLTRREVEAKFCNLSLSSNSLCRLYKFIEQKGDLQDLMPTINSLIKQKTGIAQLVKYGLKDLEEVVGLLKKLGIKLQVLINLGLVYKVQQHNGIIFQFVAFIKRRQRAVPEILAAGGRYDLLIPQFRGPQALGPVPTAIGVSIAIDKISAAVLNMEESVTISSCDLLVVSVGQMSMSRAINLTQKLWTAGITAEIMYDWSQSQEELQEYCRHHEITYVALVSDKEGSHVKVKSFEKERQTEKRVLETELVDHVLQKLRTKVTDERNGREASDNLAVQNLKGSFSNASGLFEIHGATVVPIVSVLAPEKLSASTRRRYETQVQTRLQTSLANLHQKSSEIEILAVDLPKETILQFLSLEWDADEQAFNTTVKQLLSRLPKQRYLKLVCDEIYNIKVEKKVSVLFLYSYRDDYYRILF
Chain of GCN2 kinase (Q9P2K8 whole entry): as above

Row | IC50 [1] [nM] | Ki (GCN2 kinase) [nM] | SMILES
1 | 500 to 5000 | 10 to 1000 | CC1(O)CC(CNS(C)(=O)=O)CN(c2cc(-c3cnc4ccc(C(F)F)nn34)ncn2)C1 (single isomer, unassigned) [II-6, N-((1-(6-(6-(Difluoromethyl)imidazo[1,2-b]pyridazin-3-yl)pyrimidin-4-yl)-5-hydroxy-5-methylpiperidin-3-yl)methyl)methanesulfonamide]
2 | 500 to 5000 | 10 to 1000 | CS(=O)(=O)NC1CCC2(CCN(c3cc(-c4cnc5ccc(C(F)F)nn45)ncn3)C2)C1 (single isomer, unassigned) [II-95, N-(2-(6-(6-(Difluoromethyl)imidazo[1,2-b]pyridazin-3-yl)pyrimidin-4-yl)-2-azaspiro[4.4]nonan-7-yl)methanesulfonamide]
3 | 500 to 5000 | 10 to 1000 | CS(=O)(=O)NC1CCC2(CCN(c3cc(-c4cnc5ccc(C(F)F)nn45)ncn3)C2)C1 (single isomer, unassigned) [II-100, N-(2-(6-(6-(Difluoromethyl)imidazo[1,2-b]pyridazin-3-yl)pyrimidin-4-yl)-2-azaspiro[4.4]nonan-7-yl)methanesulfonamide]
4 | < 500 | < 10 | FC(F)(F)c1ccc2ncc(-c3ccnc(N4CCOC(c5cn[nH]c5)C4)c3)n2n1 (single isomer, unassigned) [II-229, 2-(1H-Pyrazol-4-yl)-4-(4-(6-(trifluoromethyl)imidazo[1,2-b]pyridazin-3-yl)pyridin-2-yl)morpholine]
5 | < 500 | < 10 | FC(F)(F)c1ccc2ncc(-c3ccnc(N4CCOC(c5cn[nH]c5)C4)c3)n2n1 (single isomer, unassigned) [II-230, 2-(1H-Pyrazol-4-yl)-4-(4-(6-(trifluoromethyl)imidazo[1,2-b]pyridazin-3-yl)pyridin-2-yl)morpholine]
6 | < 500 | < 10 | COC1CC(CNS(C)(=O)=O)CN(c2cc(-c3cnc4ccc(C(F)F)nn34)ncn2)C1 (single isomer, unassigned) [II-233, N-((1-(6-(6-(Difluoromethyl)imidazo[1,2-b]pyridazin-3-yl)pyrimidin-4-yl)-5-methoxypiperidin-3-yl)methyl)methanesulfonamide]
7 | > 5000 | > 1000 | FC(F)c1ccc2ncc(-c3cc(C4CCCN(C5COC5)C4)ncn3)n2n1 (single isomer, unassigned) [II-241, 6-(Difluoromethyl)-3-(6-(1-(oxetan-3-yl)piperidin-3-yl)pyrimidin-4-yl)imidazo[1,2-b]pyridazine]
8 | > 5000 | 10 to 1000 | FC(F)c1ccc2ncc(-c3cc(C4CCCN(C5COC5)C4)ncn3)n2n1 (single isomer, unassigned) [II-242, 6-(Difluoromethyl)-3-(6-(1-(oxetan-3-yl)piperidin-3-yl)pyrimidin-4-yl)imidazo[1,2-b]pyridazine]
9 | 500 to 5000 | 10 to 1000 | CC1C(CNS(C)(=O)=O)CCCN1c1cc(-c2cnc3ccc(C(F)F)nn23)ncn1 (single isomer, unassigned) [II-263, N-((1-(6-(6-(Difluoromethyl)imidazo[1,2-b]pyridazin-3-yl)pyrimidin-4-yl)-2-methylpiperidin-3-yl)methyl)methanesulfonamide]
10 | > 5000 | 10 to 1000 | CC1C(CNS(C)(=O)=O)CCCN1c1cc(-c2cnc3ccc(C(F)F)nn23)ncn1 (single isomer, unassigned) [II-264, N-((1-(6-(6-(Difluoromethyl)imidazo[1,2-b]pyridazin-3-yl)pyrimidin-4-yl)-2-methylpiperidin-3-yl)methyl)methanesulfonamide]
11 | > 5000 | 10 to 1000 | CC1C(CNS(C)(=O)=O)CCCN1c1cc(-c2cnc3ccc(C(F)F)nn23)ncn1 (single isomer, unassigned) [II-265, N-((1-(6-(6-(Difluoromethyl)imidazo[1,2-b]pyridazin-3-yl)pyrimidin-4-yl)-2-methylpiperidin-3-yl)methyl)methanesulfonamide]
12 | < 500 | < 10 | CC1C(CNS(C)(=O)=O)CCCN1c1cc(-c2cnc3ccc(C(F)F)nn23)ncn1 (single isomer, unassigned) [II-266, N-((1-(6-(6-(Difluoromethyl)imidazo[1,2-b]pyridazin-3-yl)pyrimidin-4-yl)-2-methylpiperidin-3-yl)methyl)methanesulfonamide]
13 | 500 to 5000 | 10 to 1000 | CS(=O)(=O)N1CCCC(c2cc(-c3cnc4ccc(C(F)F)nn34)ncn2)CC1 (single isomer, unassigned) [II-275, 6-(Difluoromethyl)-3-(6-(1-(methylsulfonyl)azepan-4-yl)pyrimidin-4-yl)imidazo[1,2-b]pyridazine]
14 | 500 to 5000 | 10 to 1000 | CS(=O)(=O)N1CCCC(c2cc(-c3cnc4ccc(C(F)F)nn34)ncn2)CC1 (single isomer, unassigned) [II-276, 6-(Difluoromethyl)-3-(6-(1-(methylsulfonyl)azepan-4-yl)pyrimidin-4-yl)imidazo[1,2-b]pyridazine]
15 | 500 to 5000 | < 10 | NS(=O)(=O)NCC1CCCN(c2cc(-c3cnc4ccc(C(F)F)nn34)ncn2)C1 (single isomer, unassigned) [II-277]
16 | < 500 | < 10 | NS(=O)(=O)NCC1CCCN(c2cc(-c3cnc4ccc(C(F)F)nn34)ncn2)C1 (single isomer, unassigned) [II-278]
17 | 500 to 5000 | 10 to 1000 | CC1C(CNS(C)(=O)=O)C(F)(F)CCN1c1cc(-c2cnc3ccc(C(F)F)nn23)ncn1 (single isomer, unassigned) [II-302, N-((1-(6-(6-(Difluoromethyl)imidazo[1,2-b]pyridazin-3-yl)pyrimidin-4-yl)-4,4-difluoro-2-methylpiperidin-3-yl)methyl)methanesulfonamide]
18 | 500 to 5000 | 10 to 1000 | CC1C(CNS(C)(=O)=O)C(F)(F)CCN1c1cc(-c2cnc3ccc(C(F)F)nn23)ncn1 (single isomer, unassigned) [II-303, N-((1-(6-(6-(Difluoromethyl)imidazo[1,2-b]pyridazin-3-yl)pyrimidin-4-yl)-4,4-difluoro-2-methylpiperidin-3-yl)methyl)methanesulfonamide]
19 | < 500 | < 10 | CC1CC(F)(F)C(CNS(C)(=O)=O)CN1c1cc(-c2cnc3ccc(C(F)F)nn23)ncn1 (single isomer, unassigned) [II-304, N-((1-(6-(6-(Difluoromethyl)imidazo[1,2-b]pyridazin-3-yl)pyrimidin-4-yl)-4,4-difluoro-6-methylpiperidin-3-yl)methyl)methanesulfonamide]
20 | > 5000 | 10 to 1000 | CC1CC(F)(F)C(CNS(C)(=O)=O)CN1c1cc(-c2cnc3ccc(C(F)F)nn23)ncn1 (single isomer, unassigned) [II-305, N-((1-(6-(6-(Difluoromethyl)imidazo[1,2-b]pyridazin-3-yl)pyrimidin-4-yl)-4,4-difluoro-6-methylpiperidin-3-yl)methyl)methanesulfonamide]
21 | > 5000 | 10 to 1000 | CC1C[S+]([O-])CCN1c1cc(-c2cnc3ccc(C(F)F)nn23)ncn1 (single isomer, unassigned) [II-355, 4-(6-(6-(Difluoromethyl)imidazo[1,2-b]pyridazin-3-yl)pyrimidin-4-yl)-3-methylthiomorpholine 1-oxide]
22 | > 5000 | 10 to 1000 | CC1C[S+]([O-])CCN1c1cc(-c2cnc3ccc(C(F)F)nn23)ncn1 (single isomer, unassigned) [II-356, 4-(6-(6-(Difluoromethyl)imidazo[1,2-b]pyridazin-3-yl)pyrimidin-4-yl)-3-methylthiomorpholine 1-oxide]
23 | 500 to 5000 | 10 to 1000 | CC1C(CNS(C)(=O)=O)CC(F)(F)CN1c1cc(-c2cnc3ccc(C(F)F)nn23)ncn1 (single isomer, unassigned) [II-360, N-((1-(6-(6-(Difluoromethyl)imidazo[1,2-b]pyridazin-3-yl)pyrimidin-4-yl)-5,5-difluoro-2-methylpiperidin-3-yl)methyl)methanesulfonamide]
24 | < 500 | < 10 | C[C@H]1[C@@H](CNS(C)(=O)=O)CC(F)(F)CN1c1cc(-c2cnc3ccc(C(F)F)nn23)ncn1 (single isomer, unassigned) [II-361]
